# Molecular target: T1, wild-type human ALK cytoplasmic domain (amino acids 1058-1620) (Homo sapiens, UniProt Q9UM73)
# T1 construct: The cytoplasmic domain (amino acids 1058-1620) of wild-type human ALK; GST (N); made in house; host or cells: SF9 insect cells
# Test: ALK Inhibition in Enzyme Assay (Lance TR-FRET)
# Format: biochemical
# Conditions: not given
# Outline: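 TR-FRET read-out (Eu-W1024 PT66 anti-phosphotyrosine plus streptavidin-allophycocyanin, 320 nm excitation) quantified biotinylated peptide phosphorylation by the purified kinase. Reaction ran 90 minutes at room temperature before quenching with 20 mM EDTA in Tris pH 7.5 buffer with NaCl, BSA and Tween-20.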
# T1 sequence (Q9UM73 1058-1620): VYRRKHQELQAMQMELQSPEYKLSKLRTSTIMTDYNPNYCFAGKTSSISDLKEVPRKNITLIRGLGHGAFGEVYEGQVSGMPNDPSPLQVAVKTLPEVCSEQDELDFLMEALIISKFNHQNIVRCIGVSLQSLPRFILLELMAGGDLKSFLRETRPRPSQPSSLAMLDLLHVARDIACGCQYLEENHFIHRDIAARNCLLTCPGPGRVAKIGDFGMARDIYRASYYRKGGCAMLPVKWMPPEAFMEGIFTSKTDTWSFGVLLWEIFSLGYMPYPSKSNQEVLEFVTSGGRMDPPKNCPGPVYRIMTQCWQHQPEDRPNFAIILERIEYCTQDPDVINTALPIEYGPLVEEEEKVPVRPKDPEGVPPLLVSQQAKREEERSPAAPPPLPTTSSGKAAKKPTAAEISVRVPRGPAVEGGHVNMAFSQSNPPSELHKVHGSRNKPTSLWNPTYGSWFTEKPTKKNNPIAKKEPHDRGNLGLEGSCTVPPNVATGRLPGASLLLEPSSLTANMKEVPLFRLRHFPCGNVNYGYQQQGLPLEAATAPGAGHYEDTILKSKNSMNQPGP
row,SMILES,IC50 [nM]
1,"COc1cc(Nc2nccc(N3CCC[C@H](C(=O)NCc4ccc([N+](=O)[O-])cc4)C3)n2)cc(OC)c1OC [Example 71, (S)-N-(4-nitrobenzyl)-1-(2-((3,4,5-trimethoxyphenyl)amino)-4-pyrimidinyl)-3-piperidinecarboxamide]",1000 to 5000
2,"COc1cc(Nc2nccc(N3CCC[C@H](C(=O)NCc4cccc(N5CCOCC5)c4)C3)n2)cc(OC)c1OC [Example 85, (S)-N-(3-(4-morpholinyl)benzyl)-1-(2-((3,4,5-trimethoxyphenyl)amino)-4-pyrimidinyl)-3-piperidinecarboxamide]",< 50

# Same assay, conditions: 2 nM enzyme, ATP at 40 μM (Km apparent), 90 minutes, mean of three replicates; read-out: ALK IC50
row,SMILES,IC50 [nM]
1,"COc1cc(Nc2nccc(N3CCC[C@H](C(=O)NCc4ccc(OC(C)C)cc4)C3)n2)cc(OC)c1OC [Example 88, (S)-N-(4-(1-methylethoxy)benzyl)-1-(2-((3,4,5-trimethoxyphenyl)amino)-4-pyrimidinyl)-3-piperidinecarboxamide]",50 to 100
2,"COc1cc(Nc2nccc(N3CCC[C@H](C(=O)NCCOc4ccccc4)C3)n2)cc(OC)c1OC [Example 62, (S)-N-(2-phenoxyethyl)-1-(2-((3,4,5-trimethoxyphenyl)amino)-4-pyrimidinyl)-3-piperidinecarboxamide]",100 to 1000
3,"COc1cc(Nc2nccc(N3CCC[C@H](C(=O)NCc4ccc(C#N)cc4)C3)n2)cc(OC)c1OC [Example 115, (S)-N-(4-cyanobenzyl)-1-(2-((3,4,5-trimethoxyphenyl)amino)-4-pyrimidinyl)-3-piperidinecarboxamide]",100 to 1000
4,"COc1cc(Nc2nccc(N3CCC[C@H](C(=O)NCc4cccc(F)c4)C3)n2)cc(OC)c1OC [Example 104, (S)-N-(3-fluorobenzyl)-1-(2-((3,4,5-trimethoxyphenyl)amino)-4-pyrimidinyl)-3-piperidinecarboxamide]",100 to 1000
5,"COc1cc(Nc2nccc(N3CCC[C@H](C(=O)NC(C#N)c4ccc(OC(F)(F)F)cc4)C3)n2)cc(OC)c1OC (stereo partly drawn) [Example 127, (S)-N-(cyano(4-(trifluoromethoxy)phenyl)methyl)-1-(2-(3,4,5-trimethoxyphenylamino)pyrimidin-4-yl)piperidine-3-carboxamide]",< 50
6,"COc1cc(Nc2nccc(N3CCC[C@H](C(=O)NCc4cc(Br)ccc4F)C3)n2)cc(OC)c1OC [Example 58, (S)-N-(5-bromo-2-fluorobenzyl)-1-(2-((3,4,5-trimethoxyphenyl)amino)-4-pyrimidinyl)-3-piperidinecarboxamide]",< 50
7,"COc1cc(Nc2nc(C)cc(N3CCC[C@H](C(=O)NCc4ccc(C)cc4)C3)n2)cc(OC)c1OC [Example 11, (S)-1-(6-Methyl-2-(3,4,5-Trimethoxyphenyl-Amino)Pyrimidin-4-Yl)-N-(4-Methylbenzyl)Piperidine-3-Carboxamide]",5000 to 10000
8,"Cc1ccc(CNC(=O)[C@H]2CCCN(c3ccnc(Nc4cccc(C(C)C)c4)n3)C2)cc1 [Example 171, (3S)-N-(4-methylbenzyl)-1-(2-((3-(1-methylethyl)phenyl)amino)-4-pyrimidinyl)-3-piperidinecarboxamide]",100 to 1000
9,"COc1cc(Nc2nccc(N3CCSC(C(=O)NCc4ccc(C)cc4)C3)n2)cc(OC)c1OC (centres unmarked) [Example 4, N-(4-Methylbenzyl)-4-(2-(3,4,5-Trimethoxy-Phenylamino)Pyrimidin-4-Yl)Thiomorpholine-2-Carboxamide]",1000 to 5000
10,"Cc1ccc(CNC(=O)[C@H]2CCCN(c3ccnc(Nc4cc(C(C)(C)C)cc(C(C)(C)C)c4)n3)C2)cc1 [Example 153, (3S)-1-(2-((3,5-di-tert-butylphenyl)amino)-4-pyrimidinyl)-N-(4-methylbenzyl)-3-piperidinecarboxamide]",1000 to 5000
11,"COc1cc(Nc2nccc(N3CCC[C@H](C(=O)NCc4ccc(Br)cc4F)C3)n2)cc(OC)c1OC [Example 56, (S)-N-(4-bromo-2-fluorobenzyl)-1-(2-((3,4,5-trimethoxyphenyl)amino)-4-pyrimidinyl)-3-piperidinecarboxamide]",< 50
12,"COc1cc(Nc2ncc(C)c(N3CCC[C@@H](C(=O)NCc4ccc(C)cc4)C3)n2)cc(OC)c1OC [Example 9, (R)-1-(5-Methyl-2-(3,4,5-Trimethoxyphenyl-Amino)Pyrimidin-4-Yl)-N-(4-Methylbenzyl)Piperidine-3-Carboxamide]",100 to 1000
13,"COc1cc(Nc2nccc(N3CCC[C@H](C(=O)NCc4cc(Cl)ccc4C)C3)n2)cc(OC)c1OC [Example 28, (S)-N-(5-chloro-2-methylbenzyl)-1-(2-((3,4,5-trimethoxyphenyl)amino)-4-pyrimidinyl)-3-piperidinecarboxamide]",50 to 100
14,"CCOC(=O)C(C)Cc1cccc(CNC(=O)[C@H]2CCCN(c3ccnc(Nc4cc(OC)c(OC)c(OC)c4)n3)C2)c1 (stereo partly drawn) [Example 109, ethyl 2-methyl-3-(3-(((((S)-1-(2-((3,4,5-trimethoxyphenyl)amino)-4-pyrimidinyl)-3-piperidinyl)carbonyl)amino)methyl)phenyl)propanoate]",100 to 1000
15,"COc1ccccc1CNC(=O)[C@H]1CCCN(c2ccnc(Nc3cc(OC)c(OC)c(OC)c3)n2)C1 [Example 32, (S)-N-(2-methoxybenzyl)-1-(2-((3,4,5-trimethoxyphenyl)amino)-4-pyrimidinyl)-3-piperidinecarboxamide]",5000 to 10000
16,"Cc1ccc(CNC(=O)[C@H]2CCCN(c3ccnc(Nc4cc(C(F)(F)F)cc(C(F)(F)F)c4)n3)C2)cc1 [Example 163, (3S)-1-(2-((3,5-bis(trifluoromethyl)phenyl)amino)-4-pyrimidinyl)-N-(4-methylbenzyl)-3-piperidinecarboxamide]",100 to 1000
17,"COc1cc(Nc2nccc(N3CCC[C@H](C(=O)NCCc4ccc(C)c(C)c4)C3)n2)cc(OC)c1OC [Example 97, (S)-N-(2-(3,4-dimethylphenyl)ethyl)-1-(2-((3,4,5-trimethoxyphenyl)amino)-4-pyrimidinyl)-3-piperidinecarboxamide]",1000 to 5000
18,"Cc1ccc(CNC(=O)[C@H]2CCCN(c3ccnc(Nc4cccc(C)c4)n3)C2)cc1 [Example 158, (3S)-N-(4-methylbenzyl)-1-(2-((3-methylphenyl)amino)-4-pyrimidinyl)-3-piperidinecarboxamide]",100 to 1000
19,"COc1cc(Nc2nccc(N3CCC[C@H](C(=O)NCc4ccc(C(F)(F)F)c(F)c4)C3)n2)cc(OC)c1OC [Example 86, (S)-N-(3-fluoro-4-(tritluoromethyl)benzyl)-1-(2-((3,4,5-trimethoxyphenyl)amino)-4-pyrimidinyl)-3-piperidinecarboxamide]",100 to 1000
20,"CC(=O)NCc1cccc(Nc2nccc(N3CCC[C@H](C(=O)NCc4ccc(C)cc4)C3)n2)c1 [Example 183, (3S)-1-(2-((3-((acetylamino)methyl)phenyl)amino)-4-pyrimidinyl)-N-(4-methylbenzyl)-3-piperidinecarboxamide]",100 to 1000
21,"Cc1ccc(CNC(=O)[C@H]2CCCN(c3ccnc(Nc4ccc(C(=O)c5ccccc5)cc4)n3)C2)cc1 [Example 186, (S)-1-(2-(4-benzoylphenylamino)pyrimidin-4-yl)-N-(4-methylbenzyl)piperidine-3-carboxamide]",5000 to 10000
22,"CC(=O)N1CC(C)(C)c2ccc(Nc3nccc(N4CCC[C@H](C(=O)NCc5ccc(C)cc5)C4)n3)cc21 [Example 142, (3S)-1-(2-((1-acetyl-3,3-dimethyl-2,3-dihydro-1H-indol-6-yl)amino)-4-pyrimidinyl)-N-(4-methylbenzyl)-3-piperidinecarboxamide]",1000 to 5000
23,"COc1cc(Nc2nccc(N3CCC[C@H](C(=O)NCc4ccc(N(C)C)cc4)C3)n2)cc(OC)c1OC [Example 42, (S)-N-(4-(dimethylamino)benzyl)-1-(2-((3,4,5-trimethoxyphenyl)amino)-4-pyrimidinyl)-3-piperidinecarboxamide]",1000 to 5000
24,"CC(=O)Nc1cccc(Nc2nccc(N3CCC[C@H](C(=O)NCc4ccc(C)cc4)C3)n2)c1 [Example 178, (3S)-1-(2-((3-(acetylamino)phenyl)amino)-4-pyrimidinyl)-N-(4-methylbenzyl)-3-piperidinecarboxamide]",100 to 1000
25,"Cc1ccc(CNC(=O)[C@H]2CCCN(c3ccnc(Nc4cc(Cl)cc(Cl)c4)n3)C2)cc1 [Example 174, (3S)-1-(2-((3,5-dichlorophenyl)amino)-4-pyrimidinyl)-N-(4-methylbenzyl)-3-piperidinecarboxamide]",1000 to 5000
26,"COc1cc(Nc2nccc(N3CCC[C@H](C(=O)NCc4cc(C)cc(C)c4)C3)n2)cc(OC)c1OC [Example 81, (S)-N-(3,5-dimethylbenzyl)-1-(2-((3,4,5-trimethoxyphenyl)amino)-4-pyrimidinyl)-3-piperidinecarboxamide]",5000 to 10000
27,"Cc1ccc(CNC(=O)[C@H]2CCCN(c3ccnc(Nc4ccc(N5CCNC(=O)C5)nc4)n3)C2)cc1 [Example 193, (S)-N-(4-methylbenzyl)-1-(2-(6-(3-oxopiperazin-1-yl)pyridin-3-ylamino)pyrimidin-4-yl)piperidine-3-carboxamide]",1000 to 5000
28,"COc1cc(Nc2nccc(N3CCNC(C(=O)NCc4ccc(C)cc4)C3)n2)cc(OC)c1OC (centres unmarked) [Example 2, N-(4-Methylbenzyl)-4-(2-(3,4,5-Trimethoxyphenylamino)Pyrimidin-4-Yl)Piperazine-2-Carboxamide]",1000 to 5000
29,"COc1cc(Nc2nccc(N3CCC[C@H](C(=O)NCc4ccc5c(c4)CCCN5C)C3)n2)cc(OC)c1OC [Example 73, (S)-N-((1-methyl-1,2,3,4-tetrahydro-6-quinolinyl)methyl)-1-(2-((3,4,5-trimethoxyphenyl)amino)-4-pyrimidinyl)-3-piperidinecarboxamide]",1000 to 5000
30,"COc1cc(Nc2ncc(C)c(N3CCC[C@H](C(=O)NCc4ccc(C)cc4)C3)n2)cc(OC)c1OC [Example 8, (S)-1-(5-Methyl-2-(3,4,5-Trimethoxyphenyl-Amino)Pyrimidin-4-Yl)-N-(4-Methylbenzyl)Piperidine-3-Carboxamide]",1000 to 5000

# Reference: patent US8716281B2, “Pyrimidine compounds that inhibit anaplastic lymphoma kinase” (Amgen Inc., priority 2010, dated 2014)
